Patent US12390426B1, “Use of adamantane compositions and methods of reducing fibrotic tissue” (Ventoux Biosciences, Inc., priority 2024, dated 2025)
Counter-ions that a name gives are not always drawn.

Legend:
[1] = Stability of the formulated dosing solutions; format: physicochemical; details: 0.4 mg/ml in saline; room temperature
Description: (§1) Bleomycin from Henry Schein (Cat #: 8700001) was obtained as a lyophilized powder. Unformulated Bleomycin was stored at 4° C. Formulated Bleomycin was prepared by mixing the lyophilized Bleomycin powder with saline to obtain a 0.4 mg/ml solution. Unused unformulated Bleomycin was retained. The prepared Bleomycin solution was aliquoted into 50 μL, 0.4 mg/ml Bleomycin parts and stored at −80° C. Bleomycin was prepared once and daily aliquots were frozen. Frozen aliquots were thawed daily for administration. […] Bleomycin was administered once daily on days 0-27 at 20 μg per subcutaneous injection. Unused formulated Bleomycin was disposed.
Memantine HCl from Selleckchem (Cat #: S2043) was obtained. Unformulated Memantine HCl was stored at −20° C. Memantine was formulated daily by the following procedure: dissolve memantine in a 50/50 mixture of Kolliphor® EL (Sigma, Cat #: C5135)/ethanol for a 4× concentration of 12 mg/ml. Once dissolved, 3 parts MilliQ water is added for a final concentration of 3 mg/ml for dosing (12.5% Kolliphor® EL, 12.5% ethanol, 75% water). Unused unformulated Memantine was disposed. Memantine was formulated daily and administered by intraperitoneal injection once daily on days 0-27 at 15 mg/kg; 0.1 mL/20 g (5 mL/kg). […] Unused formulated Memantine was disposed.

[2] = system: Bleomycin-Induced Dermal Fibrosis; assay: Bleomycin-induced dermal fibrosis animal model; format: in vivo, C57Bl/6 Mice; details: 15 mg/kg intraperitoneal once daily days 0-27; bleomycin 20 μg s.c. daily; stated in words only, figure values not given
Description: Animal Model Designed to Determine Efficacy of Memantine for the Treatment of Bleomycin-Induced Dermal Fibrosis
Forty-two normal male C57Bl/6 Mice were obtained from Charles River Laboratories. Mice age at the start of the study were from 6-8 weeks old. Study subjects were allocated as follows: 1 group of 6 mice and 3 groups of 12 mice each. Animals were not replaced during the study.
as §1
Memantine HCl from Selleckchem (Cat #: S2043) was obtained. Unformulated Memantine HCl was stored at −20° C. […]
Animals were dosed with test articles, administered at least 60 minutes prior to Bleomycin or saline injections. All animals were weighed and evaluated daily. […]

Alzheimer's disease = details: cited from earlier work
long term potentiation = details: animal models; cited from earlier work

Bleomycin
stability of formulated Bleomycin [1]: stable for a few hours at room temperature

CC12CC3CC(C)(C1)CC(N)(C3)C2 [Memantine, Memantine HCl]
efficacy at treating fibromatosis conditions [2]: Effective at Treating Fibromatosis Conditions
cognitive, functional and global endpoints (Alzheimer's disease; three randomized placebo-controlled trials, Alzheimer's disease): significant improvements
tolerability (Alzheimer's disease; used in Germany for neurological syndromes and cognitive deficits since 1982): good tolerability
duration of long term potentiation in vivo (long term potentiation): prolong the duration of long term potentiation in vivo
learning and memory (long term potentiation): improve learning and memory
